According to publication PMC11798738, “Targeting ASK1 by CS17919 alleviates kidney‐ and liver‐related diseases in murine models” (Animal Models and Experimental Medicine, 2024):

System: UUO mouse model
Experiment: UUO mouse model of kidney injury and fibrosis
Format: in vivo, C57BL/6J mice
Experimental: 55 C57BL/6J mice, male, 6–8 weeks old were purchased from Chengdu Pharmachem Biotechnology Co. (Chengdu, China) and randomly divided into 5 groups according to their body weight: Sham (n = 10), Model (n = 15), CS17919L (10 mg/kg, n = 10), CS17919H (60 mg/kg, n = 10), and GS‐4997 (30 mg/kg, n = 10). The mice were anesthetized and fixed on the operating table, and the abdominal cortex and muscles were cut in the middle of the right side of the abdomen, and the ureter was searched for along the renal hilum. The ureter was separated using a glass split‐needle and ligated at the opening of the renal pelvis and the upper 1/3 of the ureter, and the ureter was cut between the two ligatures. Finally, the muscle and skin were closed with consecutive sutures, and animals were kept under observation until they awoke. Both the Sham and the Model group received solvent (0.2% CMC‐Na + 0.1% Tween‐80) orally twice daily. CS17919 and GS‐4997 were administered by gavage twice daily at the corresponding doses for 11 days. All treatments were started one day before surgical operation. All mice were sacrificed one day after administration with overnight fasting. Blood was collected, and serum was isolated for the analysis of urea nitrogen and creatinine. The kidney of each mouse was removed, weighed and fixed in 10% formalin solution for pathological study.
Masson staining was applied to determine kidney fibrosis in the UUO model. Thin 4 μm paraffin sections of each sample were used in this study, which followed the standard procedure. The sections were stained with Hematoxylin staining solution for 5–10 min and then washed, followed by staining with Ponceau S‐acid fuchsin stain for around 5–10 min. The sections were treated with 1% phosphomolybdic acid and Aniline Blue solution, and finally dehydrated stepwise in alcohol and sealed. VIS7.0 software was used to analyze the area of kidney fibrosis and the percentage of the fibrosis area in the scanning area was calculated.

[1] = CS17919 10 and 60 mg/kg, GS-4997 30 mg/kg, gavage twice daily, 11 days

Cc1cc(F)c(C(=O)Nc2cccc(-c3nncn3[C@H](C)C(F)(F)F)n2)cc1NC(=O)C1CC1 [CS17919]
Area of kidney fibrosis (Masson staining) [1]: tendency to reduce | Serum creatinine vs model group [1]: non‐significant tendency to decrease | Serum urea nitrogen vs model group [1]: significantly reduced | Inflammatory infiltration and interstitial fibrosis scores (H&E) (CS17919 high-dose group (60 mg/kg twice daily, 11 days)): improved significantly
